In patent US10323038B2, “Pyrazole compounds and methods of making and using same” (ABIDE THERAPEUTICS, INC., priority 2015, dated 2019):

Experiments:
MAGL = MAGL (Mus musculus (Mouse), UniProt O35678); experiment: In vitro competitive activity-based protein profiling, MAGL (mouse); assay type: biochemical; settings: for inhibition at 1 µM: read-out: MAGL % inh. 1 μM (mouse)
How it was run: (§1)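 Competitive ABPP; proteome 1.0 mg/mL total protein; mouse = brain membranes or cell lysates, human = prefrontal cortex or cell membranes. Inhibitor preinc 30 min, 37° C; FP-Rh/HT-01 (50 μM DMSO stock) 30 min, 37° C; SDS-PAGE, in-gel fluorescence of MAGL/FAAH bands.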

FAAH = FAAH (Mus musculus (Mouse), UniProt O08914); experiment: In vitro competitive activity-based protein profiling, FAAH (mouse); assay type: biochemical; settings: for inhibition at 1 µM: read-out: FAAH % inh. 1 μM (mouse)
How it was run: as §1

FAAH, sequence (O08914 whole entry): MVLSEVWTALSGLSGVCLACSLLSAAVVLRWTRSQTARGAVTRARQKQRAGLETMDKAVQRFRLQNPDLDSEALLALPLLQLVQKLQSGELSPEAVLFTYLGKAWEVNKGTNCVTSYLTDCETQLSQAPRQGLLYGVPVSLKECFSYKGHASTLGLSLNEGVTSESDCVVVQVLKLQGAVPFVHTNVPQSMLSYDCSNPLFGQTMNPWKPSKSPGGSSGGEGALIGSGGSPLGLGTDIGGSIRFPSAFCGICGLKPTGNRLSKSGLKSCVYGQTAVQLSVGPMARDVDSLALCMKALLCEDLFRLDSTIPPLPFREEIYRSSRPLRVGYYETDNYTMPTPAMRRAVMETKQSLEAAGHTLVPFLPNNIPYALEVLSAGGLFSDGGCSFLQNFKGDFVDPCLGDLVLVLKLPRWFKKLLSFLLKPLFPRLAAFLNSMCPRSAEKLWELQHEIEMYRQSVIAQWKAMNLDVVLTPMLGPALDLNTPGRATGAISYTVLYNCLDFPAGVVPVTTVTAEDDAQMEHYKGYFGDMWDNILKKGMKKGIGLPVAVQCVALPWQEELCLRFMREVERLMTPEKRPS
MAGL, sequence (O35678 whole entry): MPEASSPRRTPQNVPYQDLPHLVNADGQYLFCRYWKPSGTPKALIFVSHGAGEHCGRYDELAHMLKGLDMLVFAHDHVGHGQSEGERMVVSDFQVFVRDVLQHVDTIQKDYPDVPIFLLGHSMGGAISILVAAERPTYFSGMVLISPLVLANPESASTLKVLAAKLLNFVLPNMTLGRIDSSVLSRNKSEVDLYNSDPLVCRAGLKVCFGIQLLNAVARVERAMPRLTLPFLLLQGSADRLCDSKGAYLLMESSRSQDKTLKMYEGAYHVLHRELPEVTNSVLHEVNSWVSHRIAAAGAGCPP

CC(=O)N(C)c1cnn(C(=O)N2CC3CN(Cc4ccc(Oc5ccnnc5)cc4Cl)CC3C2)c1 (centres unmarked) [Example 257, N-(1-(5-(2-chloro-4-(pyridazin-4-yloxy)benzyl)octahydropyrrolo[3,4-c]pyrrole-2-carbonyl)-1H-pyrazol-4-yl)-N-methylacetamide]
inhibition at 1 µM (MAGL): 50 to 75% | inhibition at 1 µM (FAAH): ≥ 75%

CC(=O)N(C)c1cnn(C(=O)N2CCC3(CCN(Cc4ccc(C(F)(F)F)cc4)C3)C2)c1 (centres unmarked) [Example 2, N-methyl-N-(1-(7-(4-(trifluoromethyl)benzyl)-2,7-diazaspiro[4.4]nonane-2-carbonyl)-1H-pyrazol-4-yl)acetamide]
IC50 (MAGL): 0.1 to 1 µM | inhibition at 1 µM (MAGL): ≥ 75% | IC50 (FAAH): 0.1 to 1 µM | inhibition at 1 µM (FAAH): ≥ 75%

CC(=O)N(C)c1cnn(C(=O)N2CC3(CCN(Cc4ccc(CN5CCOCC5)cc4)CC3)C2)c1 [Example 230, N-methyl-N-(1-(7-(4-(morpholinomethyl)benzyl)-2,7-diazaspiro[3.5]nonane-2-carbonyl)-1H-pyrazol-4-yl)acetamide]
inhibition at 1 µM (MAGL): 25 to 50% | inhibition at 1 µM (FAAH): 0 to 25%

CC(=O)N(C)c1cnn(C(=O)N2CCN(Cc3ccc(CN4CCOCC4)cc3)CC2)c1 [Example 199, N-methyl-N-(1-(4-(4-(morpholinomethyl)benzyl)piperazine-1-carbonyl)-1H-pyrazol-4-yl)acetamide]
inhibition at 1 µM (MAGL): 50 to 75% | inhibition at 1 µM (FAAH): 0 to 25%

CS(=O)(=O)Nc1cnn(C(=O)N2CC3CN(Cc4ccccc4Cl)CC3C2)c1 (centres unmarked) [Example 6, N-(1-(5-(2-chlorobenzyl)octahydropyrrolo[3,4-c]pyrrole-2-carbonyl)-1H-pyrazol-4-yl)methanesulfonamide]
IC50 (MAGL): 1 to 10 µM | inhibition at 1 µM (MAGL): 0 to 25% | IC50 (FAAH): 0.1 to 1 µM | inhibition at 1 µM (FAAH): ≥ 75%

CC(=O)N(C)c1cnn(C(=O)N2CCC3(CCN(Cc4ccc(Cl)cc4)C3)CC2)c1 [Example 188, N-(1-(2-(4-chlorobenzyl)-2,8-diazaspiro[4.5]decane-8-carbonyl)-1H-pyrazol-4-yl)-N-methylacetamide]
IC50 (MAGL): 0.1 to 1 µM | inhibition at 1 µM (MAGL): ≥ 75% | IC50 (FAAH): 0.1 to 1 µM | inhibition at 1 µM (FAAH): ≥ 75%

CC(=O)N(C)c1cnn(C(=O)N2CCC3(CCN(Cc4cccc(Cl)c4)C3)CC2)c1 [Example 187, N-(1-(2-(3-chlorobenzyl)-2,8-diazaspiro[4.5]decane-8-carbonyl)-1H-pyrazol-4-yl)-N-methylacetamide]
IC50 (MAGL): 0.1 to 1 µM | inhibition at 1 µM (MAGL): ≥ 75% | IC50 (FAAH): 0.1 to 1 µM | inhibition at 1 µM (FAAH): ≥ 75%

CC(=O)N(C)c1cnn(C(=O)N2CC3CN(Cc4ccc(N5CCOCC5)cc4Cl)CC3C2)c1 (centres unmarked) [Example 16, N-(1-(5-(2-chloro-4-morpholinobenzyl)octahydropyrrolo[3,4-c]pyrrole-2-carbonyl)-1H-pyrazol-4-yl)-N-methylacetamide]
IC50 (MAGL): ≤ 0.1 µM | inhibition at 1 µM (MAGL): ≥ 75% | IC50 (FAAH): ≤ 0.1 µM | inhibition at 1 µM (FAAH): ≥ 75%

CC(=O)N(C)c1cnn(C(=O)N2C[C@H]3C[C@H](N(C)Cc4cc(C(F)(F)F)ccc4N4CCCC4)C[C@H]3C2)c1 [Example 144, N-methyl-N-(1-(trans-5-(methyl(2-(pyrrolidin-1-yl)-5-(trifluoromethyl)benzyl)amino)octahydrocyclopenta[c]pyrrole-2-carbonyl)-1H-pyrazol-4-yl)acetamide]
inhibition at 1 µM (MAGL): ≥ 75% | inhibition at 1 µM (FAAH): 50 to 75%

CC(=O)N(C)c1cnn(C(=O)N2C[C@H]3C[C@@H](N(C)Cc4cc(C(F)(F)F)ccc4Cl)C[C@H]3C2)c1 [Example 163, N-(1-(cis-5-((2-chloro-5-(trifluoromethyl)benzyl)(methyl)amino)octahydrocyclopenta[c]pyrrole-2-carbonyl)-1H-pyrazol-4-yl)-N-methylacetamide]
inhibition at 1 µM (MAGL): ≥ 75% | inhibition at 1 µM (FAAH): ≥ 75%

CC(=O)N(C)c1cnn(C(=O)N2CCC3(CC2)CN(Cc2ccc(N4CCOCC4)cc2Cl)C3)c1 [Example 28, N-(1-(2-(2-chloro-4-morpholinobenzyl)-2,7-diazaspiro[3.5]nonane-7-carbonyl)-1H-pyrazol-4-yl)-N-methylacetamide]
inhibition at 1 µM (MAGL): ≥ 75% | inhibition at 1 µM (FAAH): ≥ 75%

CC(=O)N(C)c1cnn(C(=O)N2CC3CN(Cc4cccc(Cl)c4Cl)CC3C2)c1 (centres unmarked) [Example 107, N-(1-(5-(2,3-dichlorobenzyl)octahydropyrrolo[3,4-c]pyrrole-2-carbonyl)-1H-pyrazol-4-yl)-N-methylacetamide]
IC50 (MAGL): ≤ 0.1 µM | inhibition at 1 µM (MAGL): ≥ 75% | IC50 (FAAH): ≤ 0.1 µM | inhibition at 1 µM (FAAH): ≥ 75%

CC(=O)N(C)c1cnn(C(=O)N2CC3CN(Cc4ccc(Oc5nc6ccccc6s5)cc4Cl)CC3C2)c1 (centres unmarked) [Example 252, N-(1-(5-(4-(benzo[d]thiazol-2-yloxy)-2-chlorobenzyl)octahydropyrrolo[3,4-c]pyrrole-2-carbonyl)-1H-pyrazol-4-yl)-N-methylacetamide]
inhibition at 1 µM (MAGL): ≥ 75% | inhibition at 1 µM (FAAH): ≥ 75%

CC(=O)N(C)c1cnn(C(=O)N2CCC3(CC2)CN(Cc2cccc(N4CCCC4)c2)C3)c1 [Example 30, N-methyl-N-(1-(2-(3-(pyrrolidin-1-yl)benzyl)-2,7-diazaspiro[3.5]nonane-7-carbonyl)-1H-pyrazol-4-yl)acetamide]
inhibition at 1 µM (MAGL): ≥ 75% | inhibition at 1 µM (FAAH): ≥ 75%

CC(=O)N(C)c1cnn(C(=O)N2C[C@H]3C[C@H](N(C)Cc4cc(Cl)ccc4Cl)C[C@H]3C2)c1 [Example 165, N-(1-(trans-5-((2,5-dichlorobenzyl)(methyl)amino)octahydrocyclopenta[c]pyrrole-2-carbonyl)-1H-pyrazol-4-yl)-N-methylacetamide]
inhibition at 1 µM (MAGL): ≥ 75% | inhibition at 1 µM (FAAH): ≥ 75%

CS(=O)(=O)Nc1cnn(C(=O)N2CCN(Cc3cc(N4CCCC4)cc(C(F)(F)F)c3)CC2)c1 [Example 295, N-(1-(4-(3-(pyrrolidin-1-yl)-5-(trifluoromethyl)benzyl)piperazine-1-carbonyl)-1H-pyrazol-4-yl)methanesulfonamide]
inhibition at 1 µM (MAGL): ≥ 75% | inhibition at 1 µM (FAAH): ≥ 75%

CC(=O)N(C)c1cnn(C(=O)N2CC3CN(Cc4cc(F)c(F)cc4F)CC3C2)c1 (centres unmarked) [Example 246, N-methyl-N-(1-(5-(2,4,5-trifluorobenzyl)octahydropyrrolo[3,4-c]pyrrole-2-carbonyl)-1H-pyrazol-4-yl)acetamide]
IC50 (MAGL): 0.1 to 1 µM | inhibition at 1 µM (MAGL): ≥ 75% | IC50 (FAAH): ≤ 0.1 µM | inhibition at 1 µM (FAAH): ≥ 75%

CC(=O)N(C)c1cnn(C(=O)N2CC3CN(Cc4cc(Cl)cc(N5CC6COCC6C5)c4)CC3C2)c1 (centres unmarked) [Example 118, N-(1-(5-(3-chloro-5-(tetrahydro-1H-furo[3,4-c]pyrrol-5(3H)-yl)benzyl)octahydropyrrolo[3,4-c]pyrrole-2-carbonyl)-1H-pyrazol-4-yl)-N-methylacetamide]
IC50 (MAGL): ≤ 0.1 µM | inhibition at 1 µM (MAGL): ≥ 75% | IC50 (FAAH): ≤ 0.1 µM | inhibition at 1 µM (FAAH): ≥ 75%

CC(=O)N(C)c1cnn(C(=O)N2C[C@H]3C[C@H](N(C)Cc4cc(N5CCCC5)cc(C(F)(F)F)c4)C[C@H]3C2)c1 [Example 160, N-methyl-N-(1-(trans-5-(methyl(3-(pyrrolidin-1-yl)-5-(trifluoromethyl)benzyl)amino)octahydrocyclopenta[c]pyrrole-2-carbonyl)-1H-pyrazol-4-yl)acetamide]
inhibition at 1 µM (MAGL): ≥ 75% | inhibition at 1 µM (FAAH): ≥ 75%

CS(=O)(=O)Nc1cnn(C(=O)N2CCC3(CCN(Cc4ccc(-c5nccs5)cc4Cl)C3)C2)c1 (centres unmarked) [Example 287, N-(1-(7-(2-chloro-4-(thiazol-2-yl)benzyl)-2,7-diazaspiro[4.4]nonane-2-carbonyl)-1H-pyrazol-4-yl)methanesulfonamide]
inhibition at 1 µM (MAGL): 50 to 75% | inhibition at 1 µM (FAAH): ≥ 75%

CC(=O)N(C)c1cnn(C(=O)N2C[C@H]3C[C@H](N(C)Cc4ccc(N5CCCC5)cc4C(F)(F)F)C[C@H]3C2)c1 [Example 158, N-methyl-N-(1-(trans-5-(methyl(4-(pyrrolidin-1-yl)-2-(trifluoromethyl)benzyl)amino)octahydrocyclopenta[c]pyrrole-2-carbonyl)-1H-pyrazol-4-yl)acetamide]
inhibition at 1 µM (MAGL): ≥ 75% | inhibition at 1 µM (FAAH): ≥ 75%

CC(=O)N(C)c1cnn(C(=O)N2C[C@H]3C[C@@H](N(C)Cc4cc(C(F)(F)F)ccc4N4CCCC4)C[C@H]3C2)c1 [Example 168, N-methyl-N-(1-(cis-5-(methyl(2-(pyrrolidin-1-yl)-5-(trifluoromethyl)benzyl)amino)octahydrocyclopenta[c]pyrrole-2-carbonyl)-1H-pyrazol-4-yl)acetamide]
inhibition at 1 µM (MAGL): ≥ 75% | inhibition at 1 µM (FAAH): 50 to 75%

CC(=O)N(C)c1cnn(C(=O)N2C[C@H]3C[C@H](N(C)Cc4cc(C(F)(F)F)ccc4Cl)C[C@H]3C2)c1 [Example 166, N-(1-(trans-5-((2-chloro-5-(trifluoromethyl)benzyl)(methyl)amino)octahydrocyclopenta[c]pyrrole-2-carbonyl)-1H-pyrazol-4-yl)-N-methylacetamide]
inhibition at 1 µM (MAGL): ≥ 75% | inhibition at 1 µM (FAAH): ≥ 75%

CC(=O)N(C)c1cnn(C(=O)N2CC3CN(Cc4cccc(Oc5ccc(Cl)cc5)c4)CC3C2)c1 (centres unmarked) [Example 237, N-(1-(5-(3-(4-chlorophenoxy)benzyl)octahydropyrrolo [3,4-c]pyrrole-2-carbonyl)-1H-pyrazol-4-yl)-N-methylacetamide]
IC50 (MAGL): ≤ 0.1 µM | inhibition at 1 µM (MAGL): ≥ 75% | IC50 (FAAH): ≤ 0.1 µM | inhibition at 1 µM (FAAH): ≥ 75%

CC(=O)N(C)c1cnn(C(=O)N2CC3(CCN(Cc4ccccc4C)CC3)C2)c1 [Example 89, N-methyl-N-(1-(7-(2-methylbenzyl)-2,7-diazaspiro[3.5]nonane-2-carbonyl)-1H-pyrazol-4-yl)acetamide]
inhibition at 1 µM (MAGL): 25 to 50% | inhibition at 1 µM (FAAH): 25 to 50%
